Experimental data taken from ChEMBL document CHEMBL1795325, “Studying synergism of methyl linked cyclohexyl thiophenes with triazole: synthesis and their cdk5/p25 inhibition activity” (Eur J Med Chem, 2011).

Key:
Vero = test: Cytotoxicity against african green monkey Vero C1008 cells at 6.25 to 50 ug/ml by neutral red uptake assay; type: cell-based; conditions: chlorocebus sabaeus
[1] = molecular target: Cyclin-dependent kinase 5/CDK5 activator 1 (Homo sapiens, UniProt Q00535); type: protein-complex assay
Chain of Cyclin-dependent kinase 5/CDK5 activator 1 (Q00535 whole entry): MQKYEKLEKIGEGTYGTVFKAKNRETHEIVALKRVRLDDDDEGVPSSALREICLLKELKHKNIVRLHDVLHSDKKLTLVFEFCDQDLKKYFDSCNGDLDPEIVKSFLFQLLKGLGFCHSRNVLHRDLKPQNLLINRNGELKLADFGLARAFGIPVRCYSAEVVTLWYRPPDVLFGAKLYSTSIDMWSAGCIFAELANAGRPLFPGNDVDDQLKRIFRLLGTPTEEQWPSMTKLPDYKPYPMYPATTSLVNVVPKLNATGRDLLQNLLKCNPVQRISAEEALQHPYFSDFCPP
Chain of Cyclin-dependent kinase 5/CDK5 activator 1 (Q15078 whole entry, further chain): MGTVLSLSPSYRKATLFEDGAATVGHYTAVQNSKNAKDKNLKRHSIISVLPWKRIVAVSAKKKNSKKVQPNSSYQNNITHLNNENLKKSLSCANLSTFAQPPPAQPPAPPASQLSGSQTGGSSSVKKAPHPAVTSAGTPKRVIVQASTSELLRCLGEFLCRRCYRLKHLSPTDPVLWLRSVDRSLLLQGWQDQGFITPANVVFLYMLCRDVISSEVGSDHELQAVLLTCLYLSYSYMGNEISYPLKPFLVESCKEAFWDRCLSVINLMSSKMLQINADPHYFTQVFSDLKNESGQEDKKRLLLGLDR

[2] = molecular target: Cyclin-dependent kinase 2/cyclin E1 (Homo sapiens, UniProt P24941); test: Inhibition of CDK2/Cyclin E by scintillation proximity assay; type: protein-complex assay
[3] = Selectivity ratio, ratio of IC50 for CDK2/Cyclin E to IC50 for CDK5/p25

Row | SMILES | IC50 [1] [nM] | IC50 [2] [nM] | Ratio IC50 [3] | Activity (Vero)
1 | O=C(Cc1c(NC(=O)CCl)sc2c1CCCC2)NNC(=S)[S-].[K+] | 247 |  |  | Non-toxic
2 | NNC(=O)CSc1nnc(Cc2c(NC(=O)CCl)sc3c2CCCC3)n1NC(=O)c1ccc(Cl)cc1 | 39 | 799 | 20.5 | Non-toxic
3 | O=C(CSc1nnc(Cc2c(NC(=O)CCl)sc3c2CCCC3)n1NC(=O)c1ccc(Cl)cc1)NNC(=O)c1ccccc1 | 617 |  |  | Non-toxic
4 | COC(=O)CSc1nnc(Cc2c(NC(=O)CCl)sc3c2CCCC3)n1NC(=O)c1ccc(Cl)cc1 | 443 |  |  | Non-toxic
5 | O=C(CCl)Nc1sc2c(c1Cc1nnc(SCSc3nnc(Cc4c(NC(=O)CCl)sc5c4CCCC5)n3NC(=O)c3ccccc3)n1NC(=O)c1ccccc1)CCCC2 | 669 |  |  | Non-toxic
6 | O=C(CCl)Nc1sc2c(c1Cc1nnc(SCSc3nnc(Cc4c(NC(=O)CCl)sc5c4CCCC5)n3NC(=O)c3ccc(Cl)cc3)n1NC(=O)c1ccc(Cl)cc1)CCCC2 | 340 |  |  | Non-toxic
7 | O=C(CSc1nnc(Cc2c(NC(=O)CCl)sc3c2CCCC3)n1NC(=O)c1ccccc1)N/N=C/c1ccccc1 | 32 | 560 | > 17.5 | Non-toxic
8 | CC(=O)NNC(=O)CSc1nnc(Cc2c(NC(=O)CCl)sc3c2CCCC3)n1NC(=O)c1ccc(Cl)cc1 | 468 |  |  | Non-toxic
9 | O=C(CSc1nnc(Cc2c(NC(=O)CCl)sc3c2CCCC3)n1NC(=O)c1ccccc1)NNC(=O)c1ccccc1 | 468 |  |  | Non-toxic
10 | O=C(CCl)Nc1sc2c(c1Cc1n[nH]c(=S)n1NC(=O)c1ccc(Cl)cc1)CCCC2 | 343 |  |  | Non-toxic
11 | O=C(CCl)NNC(=O)CSc1nnc(Cc2c(NC(=O)CCl)sc3c2CCCC3)n1NC(=O)c1ccc(Cl)cc1 | 229 |  |  | Non-toxic
12 | O=C(Cc1c(NC(=O)c2ccccc2)sc2c1CCCC2)NNC(=S)[S-].[K+] | 373 |  |  | Non-toxic
13 | CC(=O)Nn1c(Cc2c(NC(=O)CCl)sc3c2CCCC3)nnc1SCSc1nnc(Cc2c(NC(=O)CCl)sc3c2CCCC3)n1NC(C)=O | 849 |  |  | Non-toxic
14 | O=C(CCl)NNC(=O)CSc1nnc(Cc2c(NC(=O)CCl)sc3c2CCCC3)n1NC(=O)c1ccccc1 | 532 |  |  | Non-toxic
15 | O=C(O)CCNc1sc2c(c1CC(=O)NNC(=S)[S-])CCCC2.[K+] | 397 |  |  | Non-toxic
16 | O=C(CSc1nnc(Cc2c(NC(=O)CCl)sc3c2CCCC3)n1NC(=O)c1ccc(Cl)cc1)N/N=C/c1ccccc1 | 35 | 48 | 1.4 | Non-toxic
17 | CC(=O)Nn1c(Cc2c(NC(=O)c3ccccc3)sc3c2CCCC3)nnc1SCSc1nnc(Cc2c(NC(=O)c3ccccc3)sc3c2CCCC3)n1NC(C)=O | 766 |  |  | 
18 | NNC(=O)CSc1nnc(Cc2c(NC(=O)c3ccccc3)sc3c2CCCC3)n1NC(=O)c1ccc(Cl)cc1 | 236 |  |  | 
19 | CC(=O)NNC(=O)CSc1nnc(Cc2c(NC(=O)c3ccccc3)sc3c2CCCC3)n1NC(C)=O | 639 |  |  | 

The next lines start with results.

Row | IC50 [1] [nM] | IC50 [2] [nM] | Ratio IC50 [3] | SMILES | Activity (Vero)
20 | 346 |  |  | CC(=O)Nc1sc2c(c1CC(=O)NNC(=S)[S-])CCCC2.[K+] | Non-toxic
21 | 58 | 1140 | 19.6 | N#CCSc1nnc(Cc2c(NC(=O)CCl)sc3c2CCCC3)n1NC(=O)c1ccc(Cl)cc1 | Non-toxic
22 | 61 | 1320 | 21.6 | CC(=O)Nn1c(Cc2c(NC(=O)CCl)sc3c2CCCC3)nnc1SCC#N | Non-toxic
23 | 43 | 52 | 1.2 | Nn1c(S)nnc1Cc1c(NC(=O)CCl)sc2c1CCCC2 | Non-toxic
24 | 452 |  |  | CC(=O)Nn1c(Cc2c(NC(=O)CCl)sc3c2CCCC3)nnc1SCC(=O)NNC(=O)CCl | Non-toxic
25 | 61 | 5990 | 98.1 | CC(=O)Nn1c(Cc2c(NC(=O)CCl)sc3c2CCCC3)nnc1SCC(=O)NN | Non-toxic
26 | 681 |  |  | COC(=O)CSc1nnc(Cc2c(NC(=O)CCl)sc3c2CCCC3)n1NC(=O)c1ccccc1 | Non-toxic
27 | 336 |  |  | CC(=O)Nn1c(Cc2c(NC(=O)CCl)sc3c2CCCC3)nnc1SCC(=O)N/N=C/c1ccccc1 | Non-toxic
28 | 268 |  |  | Nn1c(S)nnc1Cc1c(NCCC(=O)O)sc2c1CCCC2 | Non-toxic
29 | 454 |  |  | CC(=O)NNC(=O)CSc1nnc(Cc2c(NC(=O)CCl)sc3c2CCCC3)n1NC(C)=O | Non-toxic
30 | 386 |  |  | CC(=O)Nc1sc2c(c1Cc1nnc(S)n1N)CCCC2 | Non-toxic
31 | 363 |  |  | CC(=O)Nn1c(Cc2c(NC(=O)CCl)sc3c2CCCC3)nnc1SCC(=O)NNC(=O)c1ccccc1 | Non-toxic
32 | 751 |  |  | O=C(CCl)Nc1sc2c(c1Cc1n[nH]c(=S)n1NC(=O)c1ccccc1)CCCC2 | Non-toxic
33 | 64 | 587 | 9.2 | CC(=O)Nc1sc2c(c1Cc1nnc(SCC(=O)NN)n1NC(=O)c1ccc(Cl)cc1)CCCC2 | 
34 | 2860 |  |  | Nn1c(S)nnc1CSc1nnc(Cc2c(NC(=O)CCl)sc3c2CCCC3)n1NC(=O)c1ccc(Cl)cc1 | Non-toxic
35 | 6180 |  |  | Nn1c(S)nnc1CSc1nnc(Cc2c(NC(=O)CCl)sc3c2CCCC3)n1NC(=O)c1ccccc1 | Non-toxic
36 | 4030 |  |  | CC(=O)Nn1c(Cc2c(NC(=O)CCl)sc3c2CCCC3)nnc1SCc1n[nH]c(=S)n1N | Non-toxic
37 | 350 |  |  | CC(=O)NNC(=O)CSc1nnc(Cc2c(NC(=O)CCl)sc3c2CCCC3)n1NC(=O)c1ccccc1 | Non-toxic
38 | 37 | 487 | 13.2 | NNC(=O)CSc1nnc(Cc2c(NC(=O)CCl)sc3c2CCCC3)n1NC(=O)c1ccccc1 | Non-toxic
39 | 657 |  |  | N#CCSc1nnc(Cc2c(NC(=O)CCl)sc3c2CCCC3)n1NC(=O)c1ccccc1 | Non-toxic
40 | 458 |  |  | CC(=O)Nc1sc2c(c1Cc1nnc(SCC#N)n1NC(C)=O)CCCC2 | 
41 | 621 |  |  | Nn1c(S)nnc1Cc1c(NC(=O)c2ccccc2)sc2c1CCCC2 | Non-toxic
42 | 695 |  |  | COC(=O)CSc1nnc(Cc2c(NC(=O)CCl)sc3c2CCCC3)n1NC(C)=O | Non-toxic
43 | 689 |  |  | CC(=O)Nn1c(Cc2c(NC(=O)CCl)sc3c2CCCC3)n[nH]c1=S | Non-toxic
44 | 389 |  |  | COC(=O)CSc1nnc(Cc2c(NC(C)=O)sc3c2CCCC3)n1NC(=O)c1ccc(Cl)cc1 | 
